Test system: cats
Assay: Study 2: behavior scores of paired unfamiliar cats, CON litter Day 1 then RP litter Day 2
Type: in vivo
Design: litter box weight, RP after / litter box weight, Change (RP): unit not given here
Settings: for Average aggression score by pair, Day 2 (RP): total possible 48
Protocol: During the studies, cat behavior was captured on video for the duration of the 24- or 48-hour period depending on the specific study. Red lights were used at night to allow for continuous observation. A scan sampling method was used to record cat behaviors each 5 minutes. The recorded videos were subsequently reviewed and analyzed in each 5-minute scan sample, with tape playing 30 frames per second. At each 5-minute time point, each cat was categorized as anxious or relaxed. Aggression or litter box usage occurred between 5-minute periods were also noted. Because each scan sample is of 5-minute period, a total of 24 observations for each individual behavior are possible for each 2 hours. The instances of an individual behavior (An; n=1, 2, 3, . . . 24) in each 5-minute period were totaled for instances in each 2 hours (Bm=ΣAn, n=1, 2, 3, . . . 24; m=1, 2, 3, . . . 12) over 24 hours. The behavioral score for each 2-hour period is ΣAn/24 (n=1, 2, 3, . . . , 24). A behavioral score for a 24-hour period is ΣBm/12 (m=1, 2, 3, . . . 12). Among all behavior assessed, aggression, in-litter-box and anxiety were scored as yes or no during each 5 minutes (An=1 or 0; n=1, 2, 3, . . . 24). In addition, anxiety was measured as a percentage of the total time that the cat was experiencing anxiety. As such the anxiety related behavioral score for a 24-hour period is 0.347×ΣBm (%) (Bm=ΣAn(%), n=1, 2, 3, . . . 24; m=1, 2, 3, . . . 12), which reflects the percentage of time over 24 hours that the cats are experiencing anxiety. Moreover, when ranking cat pairs based on their level of aggression, the sum of the aggression scores of the individual cats in the pair was used to rank the cat pairs. Behavior data (behavioral scores) were further analyzed by Least Squares Analysis of variance using SAS (2011, SAS Inst., Inc., Cary, N.C.) software and the p-diff general linear model procedures to assess treatment differences within each time period. This statistical model included effects of treatment (TRT), cat-pair within treatment (TRT*CAT), time (HR), treatment by time (TRT*HR) and residual error (SE; used to test remaining effects). The previous study established that cats are attracted to litter treated with 2-methylbut-2-enal. In this study, 48 cats were used to determine the effect of litter treated with 2-methylbut-2-enal (RP) to the cat's various behaviors listed in Table 5. Litter was prepared in two batches, by mixing beads about 0.065″ in length both with and without 2-methylbut-2-enal. Blank beads were mixed thoroughly into one batch of litter so that the litter comprised about 3% (w/w) beads to form the control litter (CON). Similarly, beads containing a pheromone composition comprising 0.02% (w/w) 2-methylbut-2-enal (formed in accordance with Example 2 or 3) were mixed thoroughly into the other batch of litter so that the litter also comprised 3% (w/w) beads to form the treated litter (RP). Each batch of the litter was divided into 3 lb. aliquots that were ready to be tested. The 48 cats were randomly grouped into 24 same-sex pairs, which were divided into two groups with 12 pairs in each. The cats of each pair had either been housed individually or in groups of two previously, but had not been placed together prior to this study. As such, each cat was made sure to pair with an unfamiliar cat for the duration of the study. The first 12 pairs of two unfamiliar cats were tested over a 48-hour period. Subsequently, all chambers used were sanitized and aired out, and then the second group of 12 pair of cats was tested. Each pair of cats was placed in a kennel containing one food dish, one water dish, and one litter box. […]

C/C=C(\C)C=O [RP, 2-methylbut-2-enal] was tested, and the “reduction of anxiety of the cats in pairs” value (Day 1 untreated litter (21%) to Day 2 treated litter (12%)) was ~50%, the “Average behavior score: Head in food/H2O dish” value (Day 2, RP litter (3% (w/w) beads with 0.02% (w/w) 2-methylbut-2-enal), 24 cat pairs, Day 1 Con 0.90) was 1.05 and the “Average behavior score: Grooming other” value (Day 2, RP litter, 24 cat pairs, Day 1 Con 0.03) was 0.01. For the same molecule, the “Average behavior score: In litter box - using” value (Day 2, RP litter, 24 cat pairs, Day 1 Con 0.07) was 0.27, the “Average behavior score: Neutral social interaction” value (Day 2, RP litter, 24 cat pairs, Day 1 Con 0.48) was 0.33 and the “Average behavior score: Play” value (Day 2, RP litter, 24 cat pairs, Day 1 Con 0.65) was 0.52. The “Average behavior score: Grooming self” value (Day 2, RP litter, 24 cat pairs, Day 1 Con 0.70) was 0.77, the “Average behavior score: Lying/sitting - touching” value (Day 2, RP litter, 24 cat pairs, Day 1 Con 0.89) was 0.98 and the “Average behavior score: Sleeping” value (Day 2, RP litter, 24 cat pairs, Day 1 Con 1.98) was 2.71. The “Average behavior score: In litter box - not using” value (Day 2, RP litter, 24 cat pairs, Day 1 Con 2.10) was 2.73, the “Average behavior score: Aggression” value (Day 2, RP litter, 24 cat pairs, Day 1 Con 3.00) was 1.95 and the “Average behavior score: Locomotion” value (Day 2, RP litter, 24 cat pairs, Day 1 Con 3.19) was 4.66. The “Average behavior score: Lying/sitting - not touching” value (Day 2, RP litter, 24 cat pairs, Day 1 Con 17.0) was 15.4, the “Average behavior score: Anxiety (%)” value (Day 2, RP litter, 24 cat pairs, percentage of time over 24 hours, Day 1 Con 21.0) was 12.0% and the “Average aggression score by pair, Day 2 (RP)” value (“Average aggression score” below) (Pair 1 (M, M), rank 6, Day 1 (con) 2.92) was 0.13. For the same molecule, the “Average aggression score” value (Pair 2 (M, M), rank 24, Day 1 (con) 0.00) was 0.00, the “Average aggression score” value (Pair 3 (M, M), rank 4, Day 1 (con) 6.33) was 3.42 and the “Average aggression score” value (Pair 4 (M, M), rank 3, Day 1 (con) 6.50) was 0.08. The “Average aggression score” value (Pair 5 (M, M), rank 5, Day 1 (con) 3.58) was 4.67, the “Average aggression score” value (Pair 6 (M, M), rank 13, Day 1 (con) 1.08) was 0.13 and the “Average aggression score” value (Pair 7 (F, F), rank 20, Day 1 (con) 0.04) was 0.33. The “Average aggression score” value (Pair 8 (F, F), rank 14, Day 1 (con) 0.50) was 0.88, the “Average aggression score” value (Pair 9 (F, F), rank 19, Day 1 (con) 0.08) was 0.08 and the “Average aggression score” value (Pair 10 (F, F), rank 2, Day 1 (con) 10.13) was 3.25. The “Average aggression score” value (Pair 11 (F, F), rank 12, Day 1 (con) 1.63) was 1.50, the “Average aggression score” value (Pair 12 (F, F), rank 23, Day 1 (con) 0.00) was 0.00 and the “Average aggression score” value (Pair 13 (M, M), rank 1, Day 1 (con) 27.00) was 18.25. The “Average aggression score” value (Pair 14 (M, M), rank 8, Day 1 (con) 2.54) was 2.58, the “Average aggression score” value (Pair 15 (M, M), rank 7, Day 1 (con) 2.54) was 3.83 and the “Average aggression score” value (Pair 16 (C, M), rank 11, Day 1 (con) 1.63) was 0.71. The “Average aggression score” value (Pair 17 (M, M), rank 9, Day 1 (con) 2.46) was 2.13, the “Average aggression score” value (Pair 18 (M, M), rank 10, Day 1 (con) 2.38) was 1.88 and the “Average aggression score” value (Pair 19 (M, M), rank 15, Day 1 (con) 0.33) was 0.00. The “Average aggression score” value (Pair 20 (F, F), rank 22, Day 1 (con) 0.00) was 0.21, the “Average aggression score” value (Pair 21 (F, F), rank 18, Day 1 (con) 0.08) was 0.92 and the “Average aggression score” value (Pair 22 (F, F), rank 16, Day 1 (con) 0.17) was 0.13. For the same molecule, the “Average aggression score” value (Pair 23 (F, F), rank 17, Day 1 (con) 0.08) was 1.00, the “Average aggression score” value (Pair 24 (F, F), rank 21, Day 1 (con) 0.00) was 0.63 and the “litter box weight, Change (RP)” value (RP after minus RP before, CON change 0.02) was 0.11. For the same molecule, the “Changes in litter box weights, % difference” value (RP change versus CON change) was 438%, the “litter box weight, RP after” value (after 24 hours of use, RP before 2.1) was 2.21 and the “reduction of aggression from Day 1 to Day 2” value (aggression score 3.0 to 1.95 after exposure to RP litter) was 68.3%. The “increase of litter box use” value (score 0.07 (Day 1 CON) to 0.27 (Day 2 RP)) was 386%.

Reference: patent US10806121B2, “Animal litter containing a pheromone composition” (Sergeant's Pet Care Products, LLC, priority 2014, dated 2020)
